{"source": "patent US20230226092A1", "about": "“CANCER […] ON G[…]” (NuCana plc, priority 2015, published 2023)", "system": "primary acute myeloid leukaemia (AML) blasts", "assay": "In vitro cytotoxicity assay (annexin V apoptosis) in primary acute myeloid leukemia cells", "assay_type": "cell-based, human", "conditions": "primary AML blasts, CD34+ cells, 48h, annexin V", "method": "NUC-1031 was assayed for its cytotoxic effects on primary cultures of acute myeloid leukaemia (AML) blasts. LD50 values (the concentration required to kill 50% of the tumour cells in culture) were calculated in respect of NUC-1031 and gemcitabine.\nBone marrow samples were collected in ethylenediaminetetraacetic acid (EDTA) from newly diagnosed, previously untreated, acute myeloid leukemia (AML) patients. AML blasts were enriched by density gradient centrifugation using Histopaque (Sigma, Poole, UK) and were subsequently maintained in Roswell Park Memorial Institute medium (RPMI) supplemented with 10% foetal bovine serum (FBS). Cells were treated with Gemcitabine or NUC-1031 at concentrations between 0.25 µM and 10 µM, and incubated for 48h. All cultures were maintained at 37° C. in a 5% CO2 humidified atmosphere.\nCells were harvested and labelled with CD34-fluorescein isothiocyanate (FITC) (BD Biosciences, Buckingham, UK) and then resuspended in 200 µl of binding buffer containing 4µl of annexin V labelled with allophycocyanin (APC) (eBioscience Ltd, Hatfield, UK). Apoptosis was quantified in the CD34^+ AML cells using an Accuri C6 flow cytometer (Becton Dickinson, CA, USA). At least 10,000 events were acquired and data were subsequently analysed using FlowJo software (Tree Star Inc., Ashland, OR, USA). All LD50 values (concentration of drug required to kill 50% of cells) were derived from the dose-response curves.", "data": [{"smiles": "Nc1ccn([C@@H]2O[C@H](CO)[C@@H](O)C2(F)F)c(=O)n1", "note": "[gemcitabine, reference compound]", "values": [{"measurement": "mean LD50", "result": 3.1, "unit": "µM"}]}]}
